Reference: patent US4321372A, “Antiulcer thiazol-2-ylcarbamoyl-carboxylic acids, esters and amides” (Pfizer Inc., priority 1980, dated 1982)
Counter-ions that a name gives are not always drawn.

Tests used:
[1] = system: ethanol-induced rat ulcer; assay: Ethanol-induced rat ulcer assay (oral antiulcer activity); assay type: in vivo; settings: for inhibition at 5 mg/kg: Rattus norvegicus, po; for inhibition at 5 mg/kg / % Inhibition (oral activity in the ethanol-induced rat ulcer assay): 5 mg./kg. orally, 15 min before absolute ethanol (1.0 ml.), male fasted rats, 8/group, lesions scored 1 hour after ethanol, based on ulcer index vs controls
Protocol: The antiulcer activity of the compounds of the present invention is evaluated by an ethanol-induced rat ulcer assay, a test reflecting clinical utility of these compounds in the treatment of peptic ulcers, particularly gastric ulcers.
The effectiveness of the products of this invention as antiulcer agents is determined in an ethanol-induced rat ulcer assay. In this test, overnight fasted male rats are orally administered either drug (5 mg./kg.) dissolved or suspended in water or dilute NaOH, or water (controls), fifteen minutes prior to an orally administered dose of absolute ethanol (1.0 ml.). One hour after the ethanol challenge the animals (8/group) are killed and the stomachs examined for the presence of lesions. After sacrifice the abdomen is opened and a locking hemostate placed at the pylorus. Six ml. of a 4% solution of formaldehyde is injected into the stomach with a gastric feeding tube and a second locking hemostate is used to seal the esophagus. The stomach is removed, opened along the greater curvature and examined for ulceration.
The scoring system used to quantitate the ethanol-induced lesions is given below.
1 Normal appearing stomach
2 Pinpoint sized lesions
3 Lesions, 2 or fewer; pin-
5 Lesions with hemorrhage
For each group of animals an ulcer index is calculated as follows:
Ulceration Index=(the sum of the scores of the group)×(the sum of the number of ulcers in the group)×(the fraction of the group having any incidence of ulceration).
The percent inhibition of ulcers is calculated as follows:
% Inhibition=100×[(ulcer index controls)-(ulcer index drug-treated)].div.(ulcer index controls).

[2] = system: gastric ulcers; settings: animals, including humans; cited from earlier work
[3] = system: antiallergic activity; settings: cited from earlier work

| Compound | inhibition at 5 mg/kg [1] [%] | % Inhibition (oral activity in the ethanol-induced rat ulcer assay) [1] | also measured |
| --- | --- | --- | --- |
| CCOC(=O)C(=O)Nc1nc(C)c(C)s1 [Example 16, ethyl 4,5-dimethylthiazol-2-ylcarbamoylcarboxylate] | 62 | – | – |
| CCOC(=O)C(=O)Nc1nc(CC)c(CC)s1 [Example 18, ethyl 4,5-diethylthiazol-2-ylcarbamoylcarboxylate] | 81 | – | – |
| CCOC(=O)C(=O)Nc1nc2c(s1)CCCC2 [Example 23, ethyl 4,5,6,7-tetrahydrobenzthiazol-2-ylcarbamoylcarboxylate] | 51 | – | – |
| CC1(C)[C@@H](OC(=O)CCC(=O)O)CC[C@]2(C)[C@H]3C(=O)C=C4[C@@H]5C[C@@](C)(C(=O)O)CC[C@]5(C)CC[C@@]4(C)[C@]3(C)CC[C@@H]12 [carbenoxolone sodium, disodium salt of the hemisuccinate of glycyrrhetinic acid] | – | – | effect on gastric ulcers [2]: prevent formation of and to accelerate healing of gastric ulcers |
| CCOC(=O)C(=O)Nc1nccs1 [ethyl thiazol-2-ylcarbamoylcarboxylate] | 3 | inactive | antiulcer activity (in words) ([1]; compared with compounds of the invention): lacking in the antiulcer activity; antiallergic activity, parenteral ([3]; high parenteral dose): antiallergic activity; antiallergic activity, oral ([3]; oral, even at 200 mg./kg.): no significant oral activity |
| ethyl 4-methylthiazol-2-ylcarbamoylcarboxylate [Example 14] | – | 59% | – |
| ethyl 5-methylthiazol-2-ylcarbamoylcarboxylate [Example 15] | – | 48% | – |
